Publication PMC6123015 (Biochemistry, 2018)

Target: T1, macrophage migration inhibitory factor-1 (MIF-1) (Homo sapiens, UniProt P14174)
T1 sequence (P14174 2-115): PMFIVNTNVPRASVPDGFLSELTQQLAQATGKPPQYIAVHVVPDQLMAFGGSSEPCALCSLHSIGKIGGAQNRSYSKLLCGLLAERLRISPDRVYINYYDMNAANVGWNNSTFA
Assay: HPP tautomerase inhibition kinetics with purified protein
Format: biochemical

Ki: 431 ± 37 µM
SMILES: O=C(O)c1cccc(-c2cc(C(=O)O)ncc2C(=O)O)c1 [4-CPPC, 4-(3-Carboxyphenyl)-2,5pyridinedicarboxylic acid]
